Experiments:
[1] = cited from earlier work
[2] = tested on: cisplatin-resistant L1210 cells; assay: Growth inhibition of cisplatin-resistant L1210 cells ([3H]-thymidine uptake); type: cell-based, mouse; conditions: for IC50: 46 h incubation plus 2 h with [3H]-thymidine, 37° C.; for Degree of Resistance: ratio of IC50 for cisplatin-resistant L1210 cells to that for L1210 cells, 2880 min
Protocol: (§1) L1210 cells and cisplatin-resistant L1210 cells under subcultivation were incubated in RPMI1640 medium containing 10% fetal bovine serum at 37° C. for 46 hours in an atmosphere containing 5% carbon dioxide. [^3 H]-thymidine was added to the grown cells, and incubation was continued for an additional two hours. The growth inhibition rate of a drug was calculated from the amounts of [^3 H]-thymidine taken into the cells in the presence and absence of that drug, and the 50% growth inhibition concentration (IC50) was determined from the graph of inhibition rate plotted against drug concentration. The degree of drug resistance was calculated from the ratio of IC50 for cisplatin-resistant L1210 cells to that for L1210 cells.

Colon 38 cells [3] = assay: Anti-tumor activity testing 4: tumor-growth inhibition of subcutaneous Colon 38, intravenous injection; type: in vivo, Female BDF mice; conditions: 21 days after transplantation
Source text: Female BDF mice of 5-week age were used as test animals (eight head for each group).

L1210 cells [4] = assay: Growth inhibition of L1210 cells ([3H]-thymidine uptake); type: cell-based, mouse; conditions: 46 h incubation plus 2 h with [3H]-thymidine, 37° C.
Protocol: as §1

L1210 cells [5] = assay: Anti-tumor activity testing 2: life-prolonging rate in mice transplanted intraperitoneally with L1210 cells; type: in vivo, Female BDF1 mice; conditions: days 1, 5 and 9
Protocol: Female BDF1 mice of 5-week age were used as test animals (five head for each group).
L1210 cells (1×10^5) were intraperitoneally transplanted to each of the test animals, each of the Pt(II) complexes listed in Table 2 was then injected intraperitoneally one day, five days and nine days after transplantation (a total of three times), and the life-prolonging rate was measured for each test group. Physiologically saline was used as the solvent of injections.

Sarcoma-180 cells = assay: Anti-tumor activity testing 1: life-prolonging rate in mice transplanted intraperitoneally with Sarcoma-180 cells; type: in vivo, Female ICR/CRJ mice; conditions: day after transplantation
Protocol: Female ICR/CRJ mice of 5-week age were used as test animals (five head for each group).
Sarcoma-180 cells (1×10^6) were intraperitoneally transplanted to each of the test animals, each of the Pt(II) complexes listed in Table 1 was then injected intraperitoneally on the next day, and the life-prolonging rate was measured for each test group. Physiologically saline was used as the solvent of injections.

Colon 38 cells [6] = assay: Anti-tumor activity testing 3: tumor-growth inhibition of subcutaneous Colon 38, intraperitoneal injection; type: in vivo, female BDF mice; conditions: days 1, 8 and 15, 21 days after transplantation
Protocol: female BDF mice of 5-week age were used as test animals (five head for each group).
Colon 38 cells (40 mg) were subcutaneously transplanted to each of the test animals at the haunch, each of the Pt(II) complexes listed in Table 3 was then injected intraperitoneally 1 day, 8 days and 15 days after transplantation (a total of three times), and the tumor-growth inhibition rate was measured for each test group 21 days after transplantation.

[7] = Solubility in physiological saline; type: physicochemical

Row | SMILES | IC50 [2] | Degree of Resistance [2] | Tumor-growth Inhibition Rate (Colon 38 cells [3]; 2 mg/kg × 6, i.v.) | Tumor-growth Inhibition Rate (Colon 38 cells [3]; 4 mg/kg × 6, i.v.) | Tumor-growth Inhibition Rate (Colon 38 cells [3]; 8 mg/kg × 6, i.v.) | IC50 (L1210 cells [4]) | Life-prolonging Rate (L1210 cells [5]; 30.0 μmol/Kg × 3, i.p.) | Life-prolonging Rate (Sarcoma-180 cells; 16.0 mg/Kg × 1, i.p.) | Tumor-growth Inhibition Rate (Colon 38 cells [3]; 16 mg/kg × 6, i.v.) | Life-prolonging Rate (L1210 cells [5]; 7.5 μmol/Kg × 3, i.p.) | Life-prolonging Rate (L1210 cells [5]; 15.0 μmol/Kg × 3, i.p.) | Life-prolonging Rate (Sarcoma-180 cells; 4.0 mg/Kg × 1, i.p.) | Life-prolonging Rate (Sarcoma-180 cells; 8.0 mg/Kg × 1, i.p.) | Tumor-growth Inhibition Rate (Colon 38 cells [6]; 20.0 μmol/Kg × 3, i.p.) | Tumor-growth Inhibition Rate (Colon 38 cells [6]; 30.0 μmol/Kg × 3, i.p.) | Tumor-growth Inhibition Rate (Colon 38 cells [6]; 45.0 μmol/Kg × 3, i.p.) | other results
1 | N.N.[Cl][Pt][Cl] [Cisplatin, cis-dichlorodiamineplatinum(II), reference compound] | 10.5 µM | 10.5 | 58% | 84% | toxic | 1 µM |  |  |  |  |  |  |  |  |  |  | anti-tumor activity (in words) ([1]; Nature, 222, 385 (1969)): high anti-tumor activity; side effects (in words) ([1]; clinical use): severe side effects, such as toxicity to the kidney, nausea, emesis and bradyacusia; Tumor-growth Inhibition Rate (Colon 38 cells [3]; 1 mg/kg × 6, i.v.): 19%
2 | NC1CCCC(N)C1.O=C1[O][Pt][O]C(=O)C12CCC2 [Compound No. 6, Cis-cyclobutane-1,1-dicarboxylato-1,3-diaminocyclohexaneplatinum(II)] |  |  |  |  |  |  | 98% | 126% |  |  |  |  |  |  |  |  | Life-prolonging Rate (L1210 cells [5]; 60.0 μmol/Kg × 3, i.p.): 104%; Life-prolonging Rate (Sarcoma-180 cells; 32.0 mg/Kg × 1, i.p.): 106%
3 | NC1CCCC(O)C1N.O=S1(=O)[O][Pt][O]1 (single isomer, unassigned; (+)) [Compound No. 8, (+)-Cis-sulfato-(1/2,3)-2,3-diaminocyclohexanol-platinum(II)] |  |  | 34% | 35% | 61% |  |  |  | 91% |  |  |  |  |  |  |  | 
4 | O=C1C[O][Pt]2([NH]C3CCCC(O)C3[NH]2)[O]1 (stereo not drawn) [Compound No. 3, Cis-glycolato-(1/2,3)-2,3-diamino-1-cyclohexanolplatinum(II)] | 2.5 µM | 1.9 |  |  |  | 1.3 µM | 147% | 252% |  | 116% | 122% | 212% | 182% | 70% | 72% | 96% | 
5 | NC1CCCC(O)C1N.O=S1(=O)[O][Pt][O]1 (single isomer, unassigned; (-)) [Compound No. 9] |  |  | 40% | 88% | 88% |  |  |  | toxic |  |  |  |  |  |  |  | 
6 | NC1CCCC(N)C1.O=C1[O][Pt][O]C1=O (stereo not drawn) [Compound No. 4, Cis-oxalato-1,3-diaminocyclohexaneplatinum(II)] | 5 µM | 2.1 |  |  |  | 2.4 µM | 245% | 364% |  | 127% | 222% | 248% | 258% | 54% | 77% | 88% | 
7 | O=S1(=O)[O][Pt]2([NH]C3CCCC(C3)[NH]2)[O]1 [Compound No. 5, Cis-sulfato-1,3-diaminocyclohexaneplatinum(II)] | 7.9 µM | 2.5 |  |  |  | 3.1 µM | 155% | 236% |  | 121% | 189% | 202% | 187% | 36% | 56% | 56% | 
8 | O=S1(=O)[O][Pt]2([NH]C3CC([NH]2)C(O)C(O)C3O)[O]1 (stereo not drawn) [Compound No. 7, Cis-sulfato-2-deoxystreptamineplatinum(II)] |  |  |  |  |  |  | 109% | 120% |  |  | 102% |  | 126% |  |  |  | Life-prolonging Rate (L1210 cells [5]; 60.0 μmol/Kg × 3, i.p.): 119%; Life-prolonging Rate (Sarcoma-180 cells; 32.0 mg/Kg × 1, i.p.): 241%
9 | O=C1[O][Pt]2([NH]C3CCCC(O)C3[NH]2)[O]C1=O (stereo not drawn) [Compound No. 1, Cis-oxalato-(1/2,3)-2,3-diamino-1-cyclohexanolplatinum(II)] | 6.6 µM | 1.9 |  |  |  | 3.5 µM | 132% | 266% |  | 115% | 115% | 189% | 218% | 24% | 16% | 45% | 
10 | NC1CCCC(O)C1N.O=S(=O)([O-])[O-].[Pt+2] (stereo not drawn) [Compound No. 2, Cis-sulfato-(1/2,3)-2,3-diamino-1-cyclohexanolplatinum(II)] | 3.2 µM | 1.9 | 22% | 41% | 90% | 1.7 µM | 151% | 534% | toxic | 136% | 134% | 295% | 532% | 47% | 78% | 97% | Solubility [7]: > 20.0 mg/mL

From patent publication US5041579A, “Platinum complexes and uses therewith” (Ajinomoto Co., Inc., priority 1987, dated 1991)
